In US20060178318A1, “Use of aurora kinase inhibitors for reducing the resistance of cancer cells” (priority 2003, published 2006):

How the values were obtained:
[1] = tested on: HeLa cells; assay: Taxol sensitivity assay (apoptosis, propidium iodide staining and flow cytometry); assay type: cell-based, human; conditions: Aurora-A-overexpressing vs mock-transfected HeLa cells, different concentrations of Taxol for 72 hr, FIG. 1
Procedure: 2×10^5 cells in complete growth medium were plated in a 35 mm dish before transfection using the Gene Juice transfection reagent (Novagen, United Kingdom) according to the manufacturer's protocol. GFP-expressing cells were flow sorted as before, 48 hr after transfection. Equal numbers of flow sorted mock-transfected or Aurora-A-transfected HeLa cell were plated on 6 well plates in DMEM (Life Technologies, Grand Island, N.Y.) containing 10% FBS. Taxol (Sigma Chemical Co.) at different concentrations was added fresh from a stock prepared in DMSO. The cells were exposed to the drug for 72 hr after which they were analyzed by propidium iodide staining and flow cytometry as described earlier. Cells collected at the indicated time points were centrifuged at 1000 rpm for 5 min at room temperature. 1×10^6 cells were resuspended in 0.5 ml PBS, fixed by adding 4.5 ml of ice-cold 70% ethanol, and incubated overnight in fixative at 4° C. Before analysis, fixed cells were washed in PBS and incubated with propidium iodide staining solution (0.1% Triton.X-100, PBS; 0.02 mg/ml propidium iodide; 0.2 mg/ml RnaseA) for 30 min at room temperature. […] Ten thousand events were analyzed per sample. […] The percentage of apoptotic cells was then measured using propidium iodide staining and flow cytometry to enumerate the sub G1 (<2N DNA content) population.

[2] = tested on: HeLa cells; conditions: stated as known; cited from earlier work
[3] = tested on: tubulin; conditions: compared with paclitaxel; cited from earlier work

Compound	resistance to paclitaxel-induced apoptosis (percentage of apoptotic cells, sub G1 population) [1]	sensitivity of HeLa cells to Taxol-induced apoptosis [2]	tubulin-assembly activity relative to paclitaxel [3]
CC(=O)O[C@H]1C(=O)[C@@]2(C)[C@H]([C@H](OC(=O)c3ccccc3)[C@]3(O)C[C@H](OC(=O)[C@H](O)[C@@H](NC(=O)c4ccccc4)c4ccccc4)C(C)=C1C3(C)C)[C@]1(OC(C)=O)CO[C@@H]1C[C@@H]2O [paclitaxel]	striking increase in resistance	highly sensitive	
A-nor-paclitaxel			only three times less than that of paclitaxel
